Paper PMC2248166, “Quantitative peptide binding motifs for 19 human and mouse MHC class I molecules derived using positional scanning combinatorial peptide libraries” (Immunome Research, 2008)

Tests used:
HLA A*3001 = HLA A*3001 (Homo sapiens, UniProt P04439, D140H/D185E/E176W/F33S/G80R/H175R/K168Q/R138E/R41S); assay: biochemical; assay type: binding
HLA A*3201 = HLA A*3201 (Homo sapiens, UniProt P04439, A270S/D101S/D185E/E176V/E277Q/F133L/G103R/G107R/G231S/H175R/I121M/I218V/I322F/K168Q/L105A/L300P/L318F/M331R/P208A/P217A/Q94H/R106L/R138Q/S129P/T104I/T323A/T345S/V100E/V321M/V358M); assay: biochemical; assay type: binding
HLA A*6802 = HLA A*6802 (Homo sapiens, UniProt P04439, A269V/D140Y/D185E/E176V/E277Q/E87N/F33Y/G231S/I121R/I166T/I218V/L180W/L300P/L318F/N151K/P208A/P217A/Q86R/R138H/R169H/S129P/T345S/V36M); assay type: binding
HLA B*0702 = HLA B*0702 (Homo sapiens, UniProt P01889); assay type: binding; conditions: positional scanning combinatorial 9-mer library; normalized to 1.0 for the best residue at each position
HLA B*0801 = HLA B*0801 (Homo sapiens, UniProt P01889, A93T/A95T/D138N/E176V/E187T/K202T/Q94N/R180D/S35A/V36M/Y33D/Y91F); assay: biochemical; assay type: binding
HLA B*1501 = HLA B*1501 (Homo sapiens, UniProt P01889, A329T/A93T/A95T/C349S/D201E/D98Y/E187L/E204Q/E69M/E70A/K202T/N87E/Q94N/R155S/R180W/S121R/S35A/S48A/V306I/V36M/Y140S/Y91S); assay: biochemical; assay type: binding
HLA B*1503 = HLA B*1503 (Homo sapiens, UniProt P01889, A329T/A93T/A95T/C349S/D201E/D98Y/E187L/E204Q/K202T/N87E/Q94N/R155S/R180L/S121R/S35A/V306I/V36M/Y140S/Y91S); assay: biochemical; assay type: binding
HLA B*2705 = HLA B*2705 (Homo sapiens, UniProt P01889, D138H/D201E/E176V/E204Q/G107R/H137Y/K202T/N104T/N87E/Q56L/Q94K/R106L/R155S/R180L/S101D/S121N/S48T/Y140D/Y33H/Y91C); assay type: binding; conditions: positional scanning combinatorial 9-mer library; normalized to 1.0 for the best residue at each position
HLA B*3501 = HLA B*3501 (Homo sapiens, UniProt P01889, A329T/A93T/A95T/C349S/D201E/D98Y/E176V/E187L/E204Q/E69T/I218V/K202T/L119I/Q94N/R155S/R180L/S121R/S35A/S48A/T118I/V127L/V306I/V36M/Y140S/Y91F); assay type: binding
HLA B*5101 = HLA B*5101 (Homo sapiens, UniProt P01889, A329T/A93T/A95T/C349S/D138N/D201E/D98Y/E187L/E204Q/E69T/G107R/I218V/K202T/L105A/L119W/N104I/Q94N/R106L/R155S/R180L/S101N/S121T/S35A/S48A/V306I/V36M/Y195H/Y91F); assay type: binding
HLA B*5301 = HLA B*5301 (Homo sapiens, UniProt P01889, A329T/A93T/A95T/C349S/D201E/D98Y/E176V/E187L/E204Q/E69T/G107R/I218V/K202T/L105A/L119I/N104I/Q94N/R106L/R155S/R180L/S101N/S121R/S35A/S48A/T118I/V127L/V306I/V36M/Y140S/Y91F); assay type: binding
HLA B*5401 = HLA B*5401 (Homo sapiens, UniProt P01889, A329T/C349S/D138N/D201E/E176V/E187T/E204Q/E69G/I76V/K202T/L119W/R155S/R180L/S121T/S35A/S48A/V127L/V306I/V36M/Y140L); assay type: binding
HLA B*5801 = HLA B*5801 (Homo sapiens, UniProt P01889, A329T/C349S/D201E/D98Y/E176V/E187L/E204Q/E69T/G107R/I218V/I90N/K202T/L105A/L119I/N104I/N87E/Q89R/Q94S/R106L/R155S/R180L/R86G/S101N/S121R/S35A/S48A/T118I/V127L/V306I/V36M/Y140S/Y91M); assay type: binding
HLA B*5802 = HLA B*5802 (Homo sapiens, UniProt P01889, A329T/C349S/D201E/D98Y/E176V/E187L/E204Q/E69T/G107R/I218V/I90N/K202T/L105A/N104I/N87E/Q89R/Q94S/R106L/R155S/R180L/R86G/S101N/S121W/S35A/S48A/V127L/V306I/V36M/Y140S/Y91M); assay type: binding
H-2 D^b = H-2 D^b (Mus musculus, UniProt P01899); assay type: binding
Chain of H-2 D^b (P01887 21-119): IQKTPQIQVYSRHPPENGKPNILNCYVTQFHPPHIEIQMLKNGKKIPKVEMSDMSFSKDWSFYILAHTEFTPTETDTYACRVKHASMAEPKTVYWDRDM
Chain of H-2 D^b (P01899 25-362): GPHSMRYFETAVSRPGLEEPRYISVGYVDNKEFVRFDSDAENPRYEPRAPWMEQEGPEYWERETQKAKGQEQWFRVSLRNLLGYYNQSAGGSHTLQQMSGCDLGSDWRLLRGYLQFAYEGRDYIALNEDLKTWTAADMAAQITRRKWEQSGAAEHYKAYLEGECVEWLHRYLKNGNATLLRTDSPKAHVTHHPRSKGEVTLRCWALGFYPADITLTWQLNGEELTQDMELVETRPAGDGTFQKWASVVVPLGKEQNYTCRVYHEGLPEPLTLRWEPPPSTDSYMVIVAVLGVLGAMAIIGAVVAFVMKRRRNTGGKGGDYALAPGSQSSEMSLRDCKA

H-2 D^d = H-2 D^d (Mus musculus, UniProt P01900); assay type: binding
Chain of H-2 D^d (P01900 whole entry, looked up): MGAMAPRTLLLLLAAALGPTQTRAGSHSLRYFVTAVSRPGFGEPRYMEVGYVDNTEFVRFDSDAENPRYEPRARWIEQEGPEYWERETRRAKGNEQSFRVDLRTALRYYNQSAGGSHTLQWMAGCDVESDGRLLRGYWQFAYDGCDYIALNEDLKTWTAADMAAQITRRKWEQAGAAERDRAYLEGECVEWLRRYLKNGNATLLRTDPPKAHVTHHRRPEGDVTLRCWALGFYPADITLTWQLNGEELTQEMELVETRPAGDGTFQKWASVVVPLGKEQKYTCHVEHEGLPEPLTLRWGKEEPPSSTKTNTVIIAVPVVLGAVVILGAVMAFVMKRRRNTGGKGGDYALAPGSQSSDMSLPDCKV

H-2 K^k = H-2 K^k (Mus musculus, UniProt P04223); assay type: binding
Chain of H-2 K^k (P01887 21-119): as the sequence (P01887 21-119) above
Chain of H-2 K^k (P04223 22-369): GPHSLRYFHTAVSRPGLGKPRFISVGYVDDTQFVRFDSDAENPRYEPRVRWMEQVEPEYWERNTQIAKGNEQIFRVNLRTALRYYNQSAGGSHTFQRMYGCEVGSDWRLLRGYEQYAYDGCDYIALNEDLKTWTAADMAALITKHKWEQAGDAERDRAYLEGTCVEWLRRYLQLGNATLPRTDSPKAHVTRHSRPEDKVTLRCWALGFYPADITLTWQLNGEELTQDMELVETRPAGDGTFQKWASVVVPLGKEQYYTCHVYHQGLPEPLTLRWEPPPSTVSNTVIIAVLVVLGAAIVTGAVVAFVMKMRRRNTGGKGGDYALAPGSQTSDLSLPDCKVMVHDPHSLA

HLA A*0201 = HLA A*0201 (Homo sapiens, UniProt P04439, D140Y/D185E/D98H/E176V/E277Q/G131W/G231S/I119V/I121R/I166T/I218V/L300P/L318F/N151K/N90K/P208A/P217A/Q86G/Q94H/R138H/R169H/T345S); conditions: positional scanning combinatorial 9-mer library; normalized to 1.0 for the best residue at each position

Row | Sequence | Normalized average relative binding affinity (ARB), HLA A*3001 (HLA A*3001) | Normalized average relative binding affinity (ARB), HLA A*3201 (HLA A*3201) | Normalized average relative binding affinity (ARB), HLA A*6802 (HLA A*6802) | Normalized average relative binding affinity (ARB), HLA B*0702 (HLA B*0702) | Normalized average relative binding affinity (ARB), HLA B*0801 (HLA B*0801) | Normalized average relative binding affinity (ARB), HLA B*1501 (HLA B*1501) | Normalized average relative binding affinity (ARB), HLA B*1503 (HLA B*1503) | Normalized average relative binding affinity (ARB), HLA B*2705 (HLA B*2705) | Normalized average relative binding affinity (ARB), HLA B*3501 (HLA B*3501) | Normalized average relative binding affinity (ARB), HLA B*5101 (HLA B*5101) | Normalized average relative binding affinity (ARB), HLA B*5301 (HLA B*5301) | Normalized average relative binding affinity (ARB), HLA B*5401 (HLA B*5401) | Normalized average relative binding affinity (ARB), HLA B*5801 (HLA B*5801) | Normalized average relative binding affinity (ARB), HLA B*5802 (HLA B*5802) | Normalized average relative binding affinity (ARB), H-2 Db (H-2 D^b) | Normalized average relative binding affinity (ARB), H-2 Dd (H-2 D^d) | Normalized average relative binding affinity (ARB), H-2 Kk (H-2 K^k) | Normalized average relative binding affinity (ARB), HLA A*0201 (HLA A*0201)
1 | XEXXXXXXX [3064.0024] | 0.025 | 0.031 | 0.0068 | 0.0028 | 0.038 | 0.20 | 0.11 | 0.0016 | 0.021 | 0.041 | 0.021 | 0.0026 | 0.0066 | 0.066 | 0.036 | 0.014 | 1.0 | 0.030
2 | XWXXXXXXX [3064.0039] | 0.26 | 0.034 | 0.022 | 0.0052 | 0.024 | 0.027 | 0.0038 | 0.0022 | 0.015 | 0.050 | 0.0054 | 0.0040 | 0.0033 | 0.098 | 0.10 | 0.061 | 0.0069 | 0.0024
3 | XXNXXXXXX [3064.0052] | 0.017 | 0.76 | 0.27 | 0.077 | 0.11 | 0.46 | 0.24 | 0.23 | 0.32 | 0.27 | 0.22 | 0.14 | 0.88 | 0.098 | 0.25 | 0.0028 | 0.40 | 0.16
